Source: article PMC11091220, “Metabolism-driven in vitro/in vivo disconnect of an oral ERɑ VHL-PROTAC” (Communications Biology, 2024)
Values joined by “and” are separate entries in the source; they are usually repeats but may differ in a detail not shown here. Identical values can stand only once. Like-named read-outs stand apart in the source and are kept apart here.

Key:
[1] = biological target: T1, recombinant human ERα ligand binding domain (LBD) (Homo sapiens, UniProt P03372); assay: ERα binding assay (LanthaScreen TR-FRET competition)
T1 construct: purchased Invitrogen PV4543
T1 sequence (P03372 311-547 limits assumed): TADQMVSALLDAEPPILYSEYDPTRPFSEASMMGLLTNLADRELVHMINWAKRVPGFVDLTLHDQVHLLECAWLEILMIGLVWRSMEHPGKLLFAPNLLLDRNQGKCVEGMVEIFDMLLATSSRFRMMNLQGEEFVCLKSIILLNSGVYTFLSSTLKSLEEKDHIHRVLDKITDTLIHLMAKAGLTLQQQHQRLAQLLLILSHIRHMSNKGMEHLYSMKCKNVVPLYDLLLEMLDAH
Protocol: The ability of compounds to bind to isolated ERα Ligand binding domain (ERα–LBD (GST)) was assessed in competition assays using a LanthaScreenTM Time-Resolved Fluorescence Resonance Energy Transfer (TR-FRET) detection end-point. For the LanthaScreen TR-FRET endpoint, a suitable fluorophore (Fluormone ES2, Product code P2645) and recombinant human ERα ligand binding domain (LBD) (product code PV4543) were purchased from Invitrogen and used to measure compound binding. A terbium-labelled anti-GST antibody (Product code PV3551) is used to indirectly label the receptor by binding to its GST tag, and competitive binding is detected by a test compounds’ ability to displace the fluorescent ligand resulting in a loss of TR-FRET signal between the Tb-anti-GST antibody and the tracer. The assay was performed with all reagent additions carried out using the Beckman Coulter BioRAPTR FRD microfluidic workstation: […]

ERα = biological target: T2, ERα (Homo sapiens, UniProt P03372); assay: ERα high throughput imaging degradation assay in MCF7 cells; type: cell-based; settings: for Dmax: MCF7; for DC50: MCF7 cells, 20 to 24 hours; for Degradation vs fulvestrant: listed as Cmp 7
T2 construct: endogenous in cells; host or cells: MCF7 (also MCF7 engineered to express Cas9)
T2 sequence (P03372 1-595): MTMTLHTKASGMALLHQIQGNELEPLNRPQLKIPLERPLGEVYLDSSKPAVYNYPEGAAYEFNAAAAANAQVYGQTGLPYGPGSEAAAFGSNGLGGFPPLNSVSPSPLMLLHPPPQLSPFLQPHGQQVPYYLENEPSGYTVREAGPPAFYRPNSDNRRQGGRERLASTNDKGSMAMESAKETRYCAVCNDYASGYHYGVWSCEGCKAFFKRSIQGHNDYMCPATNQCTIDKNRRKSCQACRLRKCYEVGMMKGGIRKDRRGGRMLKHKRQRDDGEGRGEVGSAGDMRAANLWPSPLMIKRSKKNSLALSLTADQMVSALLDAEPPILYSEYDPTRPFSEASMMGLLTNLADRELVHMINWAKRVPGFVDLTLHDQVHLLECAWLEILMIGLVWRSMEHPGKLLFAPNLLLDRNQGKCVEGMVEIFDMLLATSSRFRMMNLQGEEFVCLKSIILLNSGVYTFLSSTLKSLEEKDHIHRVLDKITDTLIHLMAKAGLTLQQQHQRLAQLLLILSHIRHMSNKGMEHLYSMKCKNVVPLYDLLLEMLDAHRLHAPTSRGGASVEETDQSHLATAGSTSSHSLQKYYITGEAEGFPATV
Protocol: Cells were fixed, permeabilised and stained with anti-ERα (rabbit clone SP1, Thermo) and anti-PR (mouse clone PgR 636, Dako) antibodies followed by secondary AlexaFluor 594 goat anti-rabbit and AlexaFluor 488 goat anti-mouse IgG antibodies. Imaging was using the Thermo Cellinsight scanner and average fluorescence intensity was analysed using Genedata.

[2] = Mouse hepatocyte intrinsic clearance; type: in vitro ADME; settings: for hepatocyte CLint at 1 µM: male, CD-1, mouse, hepatocytes
Protocol: Livers from CD-1 male mice weighing 30-35 g were digested and perfused using D-Hanks solution containing EDTA or collagenase. Once digested the liver was transferred to a petri dish and the hepatocytes were prepared by washing and centrifuging with a Leibovitz-15 medium containing 50% isotonic percoll. A cell viability >80% was required to progress the cells. The test compound was prepared to 10 mM in 100% DMSO and further diluted to 100 μM in 100% acetonitrile. The hepatocyte incubations were prepared in Leibovitz’s L-15 Medium pH 7.4 containing 1 million hepatocytes/mL and a final compound concentration of 1 µM. Cell viability was determined using a Cellometer Vision and >80% cell viability was required to proceed with the compound incubation. The compound/cell solution (250 µL) was incubated for 2 h at 37 °C and shaken at 900 rpm on an Eppendorf Thermomixer Comfort plate shaker. Samples (20 µL) were taken at 0.5, 5, 15, 30, 45, 60, 80, 100, and 120 min and quenched with 100 μL of 100% ice-cold acetonitrile. Samples were shaken at 800 rpm for 2 min and centrifuged at 4000 rpm for 20 min at 4 °C to pellet precipitated protein. The supernatant fraction was diluted 1:5 with deionised water, shaken at 1000 rpm for 2 min, and further diluted 1:1 with deionised water. Samples were analysed by LC-MS/MS[17].

[3] = biological target: ESR1-Nanoluciferase fusion protein (Homo sapiens, UniProt P03372); assay: ERα nanoluciferase degradation assay; type: cell-based; settings: for DC50: 24 hours, read-out: ERα nano-luciferase degradation DC50; for IC50: Table 1 source data, mean, read-out: ERa nanocluciferase degradation DC50 (nM), Mean IC50; for Dmax: read-out: ERα nano-luciferase Dmax
ESR1-Nanoluciferase fusion protein, sequence (P40337 whole entry, one chain of several, the tested form may be a part): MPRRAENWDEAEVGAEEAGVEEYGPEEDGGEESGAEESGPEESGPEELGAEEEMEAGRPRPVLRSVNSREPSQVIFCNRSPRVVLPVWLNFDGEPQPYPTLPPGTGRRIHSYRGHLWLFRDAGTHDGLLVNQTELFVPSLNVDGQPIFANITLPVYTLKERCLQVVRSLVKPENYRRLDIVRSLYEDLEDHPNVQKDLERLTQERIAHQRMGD
Protocol: MCF7 pTRIPZ Cas9 cells stably transfected with pSMPNeo dual Luc ESR1 vector (containing ESR1-Nanoluciferase fusion protein/reporter and a Firefly luciferase reporter) were seeded into T175 flasks and incubated for 48 hours in RPMI 1640 media containing 10% (v/v) foetal bovine serum (FBS) and 2 mM L-Glutamine. The cells were then seeded at 20000 cells/well into 384-well plates containing compounds at concentrations ranging from 3.125 µM to 15.9 pM. Following 24 hours incubation (37 °C, 5% CO2), media was removed and ONE-Glow^TM EX luciferase reagent (Promega) was added to each well. Firefly luminescence was measured after 5 minutes using an Envision (PerkinElmer). NanoDLR^TM Stop and Glo® reagent (Promega) was added and incubated for ten minutes (room temperature), before measuring Nano luminescence using the Envision. Wells containing vehicle or 3 µM Fulvestrant were used to normalise data, and degradation of ESR1-Nanoluciferase was analysed using Genedata Screener.

[4] = mean ± s.d., read-out: ERα binding IC50
[5] = 0% vehicle control, 100% fulvestrant, read-out: ERα imaging Dmax
[6] = pH 7.4, read-out: muHeps (mouse hepatocytes) clearance
[7] = MCF7, read-out: ERα imaging Dmax, 0% vehicle control, 100% fulvestrant
[8] = Table S4 source data, mean, read-out: ERa binding, Mean
[9] = Table S4 source data, read-out: ERa degradation, Dmax (%)

| Structure (SMILES) | IC50 [1, 4] [nM] | DC50 (ERα) [nM] | hepatocyte CLint at 1 µM [2, 6] [µL/min/1e6 cells] | Dmax (ERα; [9]) [%] | other results |
| --- | --- | --- | --- | --- | --- |
| Cc1ncsc1-c1ccc(CNC(=O)[C@@H]2C[C@@H](O)CN2C(=O)[C@@H](NC(=O)COCCOc2cc(F)c([C@@H]3c4[nH]c5ccccc5c4C[C@@H](C)N3CC(C)(C)F)c(F)c2)C(C)(C)C)cc1 [Compound 1] | 1.3 | 0.6 ± 1.2 | 22 |  | Dmax (ERα; [5]): 89 ± 1% |
| Cc1ncsc1-c1ccc(CNC(=O)[C@@H]2C[C@@H](O)CN2C(=O)[C@@H](NC(=O)COCCOCCOc2cc(F)c([C@@H]3c4[nH]c5ccccc5c4C[C@@H](C)N3CC(C)(C)F)c(F)c2)C(C)(C)C)cc1 [Compound 2] | 0.6 | 0.8 | 40 |  | Dmax (ERα; [5]): 94% |
| Cc1ncsc1-c1ccc(CNC(=O)[C@@H]2C[C@@H](O)CN2C(=O)[C@@H](NC(=O)COCCOCCOCCOc2cc(F)c([C@@H]3c4[nH]c5ccccc5c4C[C@@H](C)N3CC(C)(C)F)c(F)c2)C(C)(C)C)cc1 [Compound 3] | 0.3 | 0.3 ± 0.1 | 31 |  | DC50 [3]: 3.1 nM; IC50 [3]: 3.1 nM; Dmax [3]: 124%; Dmax (ERα; [7]): 99 ± 2% |
| Cc1ncsc1-c1ccc(CNC(=O)[C@@H]2C[C@@H](O)CN2C(=O)[C@@H](NC(=O)COCCOCCOCCOCCOc2cc(F)c([C@@H]3c4[nH]c5ccccc5c4C[C@@H](C)N3CC(C)(C)F)c(F)c2)C(C)(C)C)cc1 [Compound 4] | 6.3 | 3.2 | 41 |  | Dmax (ERα; [5]): 101% |
| Cc1ncsc1-c1ccc(CNC(=O)[C@@H]2C[C@@H](O)CN2C(=O)[C@@H](NC(=O)COCCN2CCN(CCOc3cc(F)c([C@@H]4c5[nH]c6ccccc6c5C[C@@H](C)N4CC(C)(C)F)c(F)c3)CC2)C(C)(C)C)cc1 [Compound 6] | 1.3 | 0.5 ± 0.4 | 11 |  | DC50 [3]: 46 ± 27 nM; IC50 [3]: 46 nM; Dmax [3]: 88 ± 1%; Dmax (ERα; [7]): 100 ± 0.5% |
| Cc1ncsc1-c1ccc(CNC(=O)[C@@H]2C[C@H](O)CN2C(=O)[C@@H](NC(=O)COCCCOCCCOc2cc(F)c([C@@H]3c4[nH]c5ccccc5c4C[C@@H](C)N3CC(C)(C)F)c(F)c2)C(C)(C)C)cc1 [Compound 7] | 1 | 3.1 |  |  | DC50 [3]: > 3000 nM; IC50 [3]: > 3000 nM; Degradation vs fulvestrant (ERα; Log M -6.5, MCF7, 24 h): 64.0% and 68.3%; Degradation vs fulvestrant (ERα; Log M -7.0): 68.3% and 71.6% and 59.3% and 58.8%; Degradation vs fulvestrant (ERα; Log M -7.5): 65.0% and 59.3% and 59.1% and 57.9%; Degradation vs fulvestrant (ERα; Log M -7.9): 65.6% and 48.2% and 57.7% and 56.0%; Degradation vs fulvestrant (ERα; Log M -8.5): 49.3% and 36.8% and 53.9% and 47.6%; Degradation vs fulvestrant (ERα; Log M -9.0): 32.2% and 32.7% and 45.9% and 42.5%; Dmax (ERα; [7]): ~65% |
| Cc1ncsc1-c1ccc(CNC(=O)[C@@H]2C[C@@H](O)CN2C(=O)[C@@H](NC(=O)COCCOCCCCOc2cc(F)c([C@@H]3c4[nH]c5ccccc5c4C[C@@H](C)N3CC(C)(C)F)c(F)c2)C(C)(C)C)cc1 [Compound 9] |  | 0.5 ± 0.1 |  |  | IC50 [1, 8]: 0.6 nM; ERa degradation, Dmax (%) (ERα; Table S4 source data): 100%; muHeps, Mean Clint (mL/min/10^6 cells) ([2]; mouse hepatocytes, Table S4 source data): 14 mL/min/10^6 cells |
| Cc1ncsc1-c1ccc(CNC(=O)[C@@H]2C[C@@H](O)CN2C(=O)[C@@H](NC(=O)COCCCOCCOc2cc(F)c([C@@H]3c4[nH]c5ccccc5c4C[C@@H](C)N3CC(C)(C)F)c(F)c2)C(C)(C)C)cc1 [Compound 10] |  | 0.4 | 20 ± 1 | 100 | IC50 [1, 8]: 0.5 nM; hepatocyte CLint at 1 µM ([2]; pH 7.4, mouse hepatocytes, Table S4 source data, read-out: muHeps, Mean Clint (mL/min/10^6 cells)): 19 µL/min/1e6 cells |
| Cc1ncsc1-c1ccc(CNC(=O)[C@@H]2C[C@@H](O)CN2C(=O)[C@@H](NC(=O)C2(OCCCOCCCOc3cc(F)c([C@@H]4c5[nH]c6ccccc6c5C[C@@H](C)N4CC(C)(C)F)c(F)c3)CC2)C(C)(C)C)cc1 [Compound 13] |  | 2 |  | 96 | IC50 [1, 8]: 1 nM |
| Cc1ncsc1-c1ccc(CNC(=O)[C@@H]2C[C@@H](O)CN2C(=O)[C@@H](NC(=O)COCCCc2cccc(COc3cc(F)c([C@@H]4c5[nH]c6ccccc6c5C[C@@H](C)N4CC(C)(C)F)c(F)c3)c2)C(C)(C)C)cc1 [Compound 14] |  | 4.9 |  | 103 |  |
| Cc1ncsc1-c1ccc(CNC(=O)[C@@H]2C[C@@H](O)CN2C(=O)[C@@H](NC(=O)COCc2cccc(CCCOc3cc(F)c([C@@H]4c5[nH]c6ccccc6c5C[C@@H](C)N4CC(C)(C)F)c(F)c3)c2)C(C)(C)C)cc1 [Compound 15] |  | 14 |  | 106 |  |
